Measurements: ChEMBL document CHEMBL3526033, “Identification of human liver cytochrome P450 enzymes involved in the metabolism of SCH 530348 (Vorapaxar), a potent oral thrombin protease-activated receptor 1 antagonist” (Drug Metab Dispos, 2011)

Assays:
[1] = system: Liver microsome; assay: Drug metabolism in human liver microsomes assessed as (3R,3aS,4S,4aR,7R,8aR,9aR)-7-amino-4-((E)-2-(5-(3-fluorophenyl)pyridin-2-yl)vinyl)-3-methyldecahydronaphtho[2,3-c]furan-1(3H)-one formation at 10 to 25 uM after 120 mins by LC-MS/MS analysis in presence of tranylcypromine; type: ADME; conditions: 2 h
[2] = system: Liver microsome; assay: Drug metabolism in human liver microsomes assessed as (3R,3aS,4S,4aR,7R,8aR,9aR)-7-amino-4-((E)-2-(5-(3-fluorophenyl)pyridin-2-yl)vinyl)-3-methyldecahydronaphtho[2,3-c]furan-1(3H)-one formation at 10 to 25 uM after 120 mins by LC-MS/MS analysis in presence of ketoconazole; type: ADME; conditions: 2 h
[3] = Drug metabolism in insect microsomes at 10 uM after 120 mins by LC-MS/MS analysis in presence of NADPH; type: ADME, Microsome; conditions: read-out: Compound recovery
[4] = system: Liver microsome; assay: Drug metabolism in human liver microsomes overexpressing CYP3A4 assessed as (3R,3aS,4S,4aR,7R,8aR,9aR)-7-amino-4-((E)-2-(5-(3-fluorophenyl)pyridin-2-yl)vinyl)-3-methyldecahydronaphtho[2,3-c]furan-1(3H)-one formation at 25 uM after 120 mins by LC-MS/MS analysis in presence of tranylcypromine; type: ADME; conditions: 2 h
[5] = target: T1, Cytochrome P450 2J2 (Homo sapiens, UniProt P51589); assay: Drug metabolism assessed as human recombinant CYP2J2-mediated 2-hydroxyethyl (1R,3aR,4aR,6R,8aR,9S,9aS)-9-((E)-2-(5-(3-fluorophenyl)pyridin-2-yl)vinyl)-1-methyl-3-oxododecahydronaphtho[2,3-c]furan-6-ylcarbamate formation at 25 uM after 120 mins by LC-MS/MS analysis in presence of astemizole; type: ADME; conditions: recombinant enzyme, 2 h
T1 sequence (P51589 whole entry): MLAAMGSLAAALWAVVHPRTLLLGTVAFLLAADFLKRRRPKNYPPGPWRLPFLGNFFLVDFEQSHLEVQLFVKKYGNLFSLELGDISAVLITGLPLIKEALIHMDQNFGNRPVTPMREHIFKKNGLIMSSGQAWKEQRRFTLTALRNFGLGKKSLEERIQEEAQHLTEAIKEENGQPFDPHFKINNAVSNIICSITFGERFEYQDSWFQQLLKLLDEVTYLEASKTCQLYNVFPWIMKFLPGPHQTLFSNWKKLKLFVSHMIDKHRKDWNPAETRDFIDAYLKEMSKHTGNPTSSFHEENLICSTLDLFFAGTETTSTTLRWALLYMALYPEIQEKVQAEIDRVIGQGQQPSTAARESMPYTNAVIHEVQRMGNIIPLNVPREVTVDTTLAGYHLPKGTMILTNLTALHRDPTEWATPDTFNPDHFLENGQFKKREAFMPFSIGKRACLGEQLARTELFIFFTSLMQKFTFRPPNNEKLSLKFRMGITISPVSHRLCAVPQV

[6] = target: T2, Cytochrome P450 2C9 (Homo sapiens, UniProt P11712); assay: Activity of human recombinant CYP2C9 assessed as enzyme-mediated drug metabolism treated with 25 uM vorapaxar after 120 mins by LC-MS/MS analysis in presence of NADPH; type: ADME; conditions: 2 h
[7] = target: T3, Cytochrome P450 2C19 (Homo sapiens, UniProt P33261); assay: Activity of human recombinant CYP2C19 assessed as enzyme-mediated drug metabolism treated with 25 uM vorapaxar after 120 mins by LC-MS/MS analysis in presence of NADPH; type: ADME; conditions: 2 h
[8] = target: Cytochrome P450 2E1 (Homo sapiens, UniProt P05181); assay: Activity of human recombinant CYP2E1 assessed as enzyme-mediated drug metabolism treated with 25 uM vorapaxar after 120 mins by LC-MS/MS analysis in presence of NADPH; type: ADME; conditions: 2 h
[9] = target: Cytochrome P450 3A4 (Homo sapiens, UniProt P08684); assay: Activity of human recombinant CYP3A4 assessed as enzyme-mediated 2-hydroxyethyl (1R,3aR,4aR,6R,8aR,9S,9aS)-9-((E)-2-(5-(3-fluorophenyl)pyridin-2-yl)vinyl)-1-methyl-3-oxododecahydronaphtho[2,3-c]furan-6-ylcarbamate formation at 25 uM after 120 mins by LC-MS/MS analysis in presence of NADPH; type: ADME; conditions: 2 h
[10] = target: Cytochrome P450 2A6 (Homo sapiens, UniProt P11509); assay: Activity of human recombinant CYP2A6 assessed as enzyme-mediated 2-hydroxyethyl (1R,3aR,4aR,6R,8aR,9S,9aS)-9-((E)-2-(5-(3-fluorophenyl)pyridin-2-yl)vinyl)-1-methyl-3-oxododecahydronaphtho[2,3-c]furan-6-ylcarbamate formation at 25 uM after 120 mins by LC-MS/MS analysis in presence of NADPH; type: ADME; conditions: 2 h
[11] = target: T4, Cytochrome P450 2B6 (Homo sapiens, UniProt P20813); assay: Activity of human recombinant CYP2B6 assessed as enzyme-mediated 2-hydroxyethyl (1R,3aR,4aR,6R,8aR,9S,9aS)-9-((E)-2-(5-(3-fluorophenyl)pyridin-2-yl)vinyl)-1-methyl-3-oxododecahydronaphtho[2,3-c]furan-6-ylcarbamate formation at 25 uM after 120 mins by LC-MS/MS analysis in presence of NADPH; type: ADME; conditions: 2 h
T4 sequence (P20813 whole entry): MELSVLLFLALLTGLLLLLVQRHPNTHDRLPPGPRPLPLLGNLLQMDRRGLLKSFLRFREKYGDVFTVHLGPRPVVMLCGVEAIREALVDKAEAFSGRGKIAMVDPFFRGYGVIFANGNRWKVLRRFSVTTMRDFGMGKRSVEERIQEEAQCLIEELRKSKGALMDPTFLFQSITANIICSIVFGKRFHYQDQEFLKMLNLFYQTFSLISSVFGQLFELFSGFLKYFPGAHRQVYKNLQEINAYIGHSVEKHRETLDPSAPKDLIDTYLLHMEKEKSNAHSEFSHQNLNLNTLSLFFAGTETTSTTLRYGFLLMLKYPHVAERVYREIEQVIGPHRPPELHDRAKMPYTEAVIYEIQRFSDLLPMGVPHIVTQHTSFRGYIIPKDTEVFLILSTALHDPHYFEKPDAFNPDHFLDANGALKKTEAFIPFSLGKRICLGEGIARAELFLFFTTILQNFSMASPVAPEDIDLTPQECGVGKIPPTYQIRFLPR

[12] = target: T2, Cytochrome P450 2C9; assay: Activity of human recombinant CYP2C9 assessed as enzyme-mediated 2-hydroxyethyl (1R,3aR,4aR,6R,8aR,9S,9aS)-9-((E)-2-(5-(3-fluorophenyl)pyridin-2-yl)vinyl)-1-methyl-3-oxododecahydronaphtho[2,3-c]furan-6-ylcarbamate formation at 25 uM after 120 mins by LC-MS/MS analysis in presence of NADPH; type: ADME; conditions: 2 h
[13] = target: T3, Cytochrome P450 2C19; assay: Activity of human recombinant CYP2C19 assessed as enzyme-mediated 2-hydroxyethyl (1R,3aR,4aR,6R,8aR,9S,9aS)-9-((E)-2-(5-(3-fluorophenyl)pyridin-2-yl)vinyl)-1-methyl-3-oxododecahydronaphtho[2,3-c]furan-6-ylcarbamate formation at 25 uM after 120 mins by LC-MS/MS analysis in presence of NADPH; type: ADME; conditions: 2 h
[14] = target: Cytochrome P450 4F12 (Homo sapiens, UniProt Q9HCS2); assay: Activity of human recombinant CYP4F12 assessed as enzyme-mediated 2-hydroxyethyl (1R,3aR,4aR,6R,8aR,9S,9aS)-9-((E)-2-(5-(3-fluorophenyl)pyridin-2-yl)vinyl)-1-methyl-3-oxododecahydronaphtho[2,3-c]furan-6-ylcarbamate formation at 25 uM after 120 mins by LC-MS/MS analysis in presence of NADPH; type: ADME; conditions: 2 h
Sequence of Cytochrome P450 4F12 (Q9HCS2 whole entry): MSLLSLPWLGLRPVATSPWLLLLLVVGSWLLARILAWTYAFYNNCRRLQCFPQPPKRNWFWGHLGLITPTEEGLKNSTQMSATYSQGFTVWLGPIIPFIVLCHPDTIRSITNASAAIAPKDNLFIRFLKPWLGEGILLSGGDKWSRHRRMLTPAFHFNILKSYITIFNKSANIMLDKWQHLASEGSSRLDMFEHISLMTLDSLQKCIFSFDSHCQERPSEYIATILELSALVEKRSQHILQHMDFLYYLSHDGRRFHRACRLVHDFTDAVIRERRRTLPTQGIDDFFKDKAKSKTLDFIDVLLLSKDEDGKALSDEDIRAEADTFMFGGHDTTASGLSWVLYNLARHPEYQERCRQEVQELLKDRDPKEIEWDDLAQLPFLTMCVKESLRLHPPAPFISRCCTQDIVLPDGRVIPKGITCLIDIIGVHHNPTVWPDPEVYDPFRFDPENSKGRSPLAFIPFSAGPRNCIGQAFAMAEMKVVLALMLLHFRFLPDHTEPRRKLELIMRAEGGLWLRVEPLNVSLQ

T2 sequence (P11712 whole entry): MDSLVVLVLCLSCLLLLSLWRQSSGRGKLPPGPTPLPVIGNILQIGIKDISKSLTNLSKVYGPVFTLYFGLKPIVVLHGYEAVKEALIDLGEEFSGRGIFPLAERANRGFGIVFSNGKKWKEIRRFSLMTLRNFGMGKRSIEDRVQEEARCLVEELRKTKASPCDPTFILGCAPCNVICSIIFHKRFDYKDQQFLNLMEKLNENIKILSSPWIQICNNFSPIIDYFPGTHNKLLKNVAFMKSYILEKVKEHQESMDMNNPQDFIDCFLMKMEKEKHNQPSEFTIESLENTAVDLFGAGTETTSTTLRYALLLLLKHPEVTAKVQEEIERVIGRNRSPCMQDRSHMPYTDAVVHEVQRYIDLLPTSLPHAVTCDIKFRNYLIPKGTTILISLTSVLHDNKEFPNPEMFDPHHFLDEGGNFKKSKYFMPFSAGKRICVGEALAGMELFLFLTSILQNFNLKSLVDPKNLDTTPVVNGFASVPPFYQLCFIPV
T3 sequence (P33261 whole entry): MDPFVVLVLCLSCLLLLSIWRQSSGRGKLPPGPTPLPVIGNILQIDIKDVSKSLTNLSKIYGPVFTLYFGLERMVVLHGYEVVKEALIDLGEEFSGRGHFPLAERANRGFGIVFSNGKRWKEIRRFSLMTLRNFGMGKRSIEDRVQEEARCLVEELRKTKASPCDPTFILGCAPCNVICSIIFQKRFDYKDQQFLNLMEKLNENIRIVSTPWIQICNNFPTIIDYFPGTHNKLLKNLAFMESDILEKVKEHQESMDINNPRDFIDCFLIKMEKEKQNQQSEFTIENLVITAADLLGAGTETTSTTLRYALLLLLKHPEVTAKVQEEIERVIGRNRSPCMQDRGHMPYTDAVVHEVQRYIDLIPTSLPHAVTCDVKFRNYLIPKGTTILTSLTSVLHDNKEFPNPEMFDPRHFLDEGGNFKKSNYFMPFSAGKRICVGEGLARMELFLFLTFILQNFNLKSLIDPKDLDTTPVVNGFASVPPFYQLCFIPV
Sequence of Cytochrome P450 2E1 (P05181 whole entry): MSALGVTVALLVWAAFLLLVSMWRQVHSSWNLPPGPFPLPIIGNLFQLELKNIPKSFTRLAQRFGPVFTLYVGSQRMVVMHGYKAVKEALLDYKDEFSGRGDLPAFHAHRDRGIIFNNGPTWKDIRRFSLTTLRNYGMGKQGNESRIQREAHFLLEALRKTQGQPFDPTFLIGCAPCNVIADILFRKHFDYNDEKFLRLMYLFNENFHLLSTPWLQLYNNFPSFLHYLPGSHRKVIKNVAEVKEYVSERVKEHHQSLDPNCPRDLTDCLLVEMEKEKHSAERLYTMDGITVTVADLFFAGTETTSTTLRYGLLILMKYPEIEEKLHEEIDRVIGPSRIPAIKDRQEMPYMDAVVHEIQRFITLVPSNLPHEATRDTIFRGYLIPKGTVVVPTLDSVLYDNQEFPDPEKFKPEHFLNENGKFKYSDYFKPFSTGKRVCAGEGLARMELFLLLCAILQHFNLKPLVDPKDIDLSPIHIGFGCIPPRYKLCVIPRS
Sequence of Cytochrome P450 2A6 (P11509 whole entry): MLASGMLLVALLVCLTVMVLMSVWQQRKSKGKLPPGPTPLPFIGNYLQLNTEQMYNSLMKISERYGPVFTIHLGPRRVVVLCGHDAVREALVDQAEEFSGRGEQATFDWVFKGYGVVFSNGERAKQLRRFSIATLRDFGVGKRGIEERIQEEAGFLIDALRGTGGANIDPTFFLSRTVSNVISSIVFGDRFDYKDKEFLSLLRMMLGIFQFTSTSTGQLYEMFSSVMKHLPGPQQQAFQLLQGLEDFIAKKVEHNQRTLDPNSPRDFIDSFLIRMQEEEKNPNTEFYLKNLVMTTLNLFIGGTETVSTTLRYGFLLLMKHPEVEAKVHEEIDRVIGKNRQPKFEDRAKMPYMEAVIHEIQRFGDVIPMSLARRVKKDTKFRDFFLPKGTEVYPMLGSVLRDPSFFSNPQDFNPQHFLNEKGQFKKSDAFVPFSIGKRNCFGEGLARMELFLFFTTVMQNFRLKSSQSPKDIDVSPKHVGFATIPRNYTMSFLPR
Sequence of Cytochrome P450 3A4 (P08684 whole entry): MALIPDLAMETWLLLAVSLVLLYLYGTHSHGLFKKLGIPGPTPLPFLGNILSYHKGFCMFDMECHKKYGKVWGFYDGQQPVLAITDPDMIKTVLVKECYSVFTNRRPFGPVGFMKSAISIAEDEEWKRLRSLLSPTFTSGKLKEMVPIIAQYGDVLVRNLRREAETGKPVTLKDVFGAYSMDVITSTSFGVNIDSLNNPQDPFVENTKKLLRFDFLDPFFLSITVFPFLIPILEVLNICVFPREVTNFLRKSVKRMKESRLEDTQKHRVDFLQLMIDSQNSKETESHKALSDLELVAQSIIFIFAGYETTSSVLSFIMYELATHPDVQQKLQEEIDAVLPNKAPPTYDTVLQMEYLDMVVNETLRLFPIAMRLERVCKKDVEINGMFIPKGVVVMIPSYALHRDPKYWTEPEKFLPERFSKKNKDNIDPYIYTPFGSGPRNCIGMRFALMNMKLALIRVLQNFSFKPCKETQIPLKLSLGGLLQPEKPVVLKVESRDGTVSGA

CCOC(=O)N[C@@H]1CC[C@@H]2[C@@H](C1)C[C@H]1C(=O)O[C@H](C)[C@H]1[C@H]2/C=C/c1ccc(-c2cccc(F)c2)cn1 [VORAPAXAR]
98.7%: remaining at 2 h, 10 µM [3]
metabolite_not_detected: Drug metabolism [1] | Drug metabolism [2] | Drug metabolism [4] | Drug metabolism [5]

C[C@H]1OC(=O)[C@@H]2C[C@@H]3C[C@H](NC(=O)OCCO)CC[C@H]3[C@H](/C=C/c3ccc(-c4cccc(F)c4)cn3)[C@H]12
metabolite_detected: Drug metabolism [6] | Drug metabolism [7] | Drug metabolism [8]

CCOC(=O)N[C@@H]1CC[C@@H]2[C@@H](C1)C[C@H]1C(=O)O[C@H](C)[C@H]1[C@H]2/C=[14CH]/c1ccc(-c2cccc(F)c2)cn1
metabolite_detected: Drug metabolism [9] | Drug metabolism [10] | Drug metabolism [11] | Drug metabolism [12] | Drug metabolism [13] | Drug metabolism [14]
